Consider four compounds from ChEMBL document CHEMBL1155922, “Epiboxidine and novel-related analogues: a convenient synthetic approach and estimation of their affinity at neuronal nicotinic acetylcholine receptor subtypes” (Bioorg Med Chem Lett, 2008).

pKi: −log10 of the molar value.

For test [1], the target named is T1, Neuronal acetylcholine receptor; alpha4/beta2 (Homo sapiens, UniProt P17787+P43681). Briefly: Binding affinity to alpha4beta2 nAChR. Type of test: protein-complex assay.
The target in test [2] is T2, Neuronal acetylcholine receptor; alpha4/beta2 (Rattus norvegicus, UniProt P09483+P12390). Briefly: Displacement of [3H]nicotine from alpha4beta2 nAChR in rat cerebral membrane. Type of test: cell membranes. Background: Loss of bound radioactivity is the signal in a displacement assay; it reports binding, not function.
For test [3], the species on record is Rattus norvegicus. Briefly: Selectivity ratio of Ki for rat alpha4beta2 nAChR to Ki for rat alpha7 nAChR.
The target in test [4] is Neuronal acetylcholine receptor subunit alpha-7 (Rattus norvegicus, UniProt Q05941). Nature of the test: Displacement of [125I]alpha-bungarotoxin from alpha7 nAChR in rat cortical membrane. Type of test: cell membranes.
Test [5] concerns the target T1, Neuronal acetylcholine receptor; alpha4/beta2. Nature of the test: Displacement of [3H]cystisine from alpha4beta2 nAChR. In kind it is protein-complex assay.
Test [6] concerns the target T2, Neuronal acetylcholine receptor; alpha4/beta2. Briefly: Displacement of [3H]epibatidine from alpha4beta2 nAChR in rat cortical membrane. In kind it is cell membranes.

Sequence of Neuronal acetylcholine receptor subunit alpha-7 (Q05941 whole entry): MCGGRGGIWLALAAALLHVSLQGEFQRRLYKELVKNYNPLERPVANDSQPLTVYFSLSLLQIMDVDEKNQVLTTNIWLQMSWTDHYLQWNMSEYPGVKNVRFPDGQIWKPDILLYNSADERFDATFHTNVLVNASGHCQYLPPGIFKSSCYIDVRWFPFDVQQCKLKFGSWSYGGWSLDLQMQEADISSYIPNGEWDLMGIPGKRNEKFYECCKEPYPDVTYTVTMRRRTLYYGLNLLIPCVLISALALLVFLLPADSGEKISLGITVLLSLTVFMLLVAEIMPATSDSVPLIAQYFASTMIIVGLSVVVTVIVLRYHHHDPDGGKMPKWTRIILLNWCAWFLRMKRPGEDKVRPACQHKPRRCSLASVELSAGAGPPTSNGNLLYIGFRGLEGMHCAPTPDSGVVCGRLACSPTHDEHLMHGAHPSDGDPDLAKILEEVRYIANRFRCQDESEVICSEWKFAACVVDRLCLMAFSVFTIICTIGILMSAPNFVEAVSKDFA
T2 sequence (P09483 whole entry): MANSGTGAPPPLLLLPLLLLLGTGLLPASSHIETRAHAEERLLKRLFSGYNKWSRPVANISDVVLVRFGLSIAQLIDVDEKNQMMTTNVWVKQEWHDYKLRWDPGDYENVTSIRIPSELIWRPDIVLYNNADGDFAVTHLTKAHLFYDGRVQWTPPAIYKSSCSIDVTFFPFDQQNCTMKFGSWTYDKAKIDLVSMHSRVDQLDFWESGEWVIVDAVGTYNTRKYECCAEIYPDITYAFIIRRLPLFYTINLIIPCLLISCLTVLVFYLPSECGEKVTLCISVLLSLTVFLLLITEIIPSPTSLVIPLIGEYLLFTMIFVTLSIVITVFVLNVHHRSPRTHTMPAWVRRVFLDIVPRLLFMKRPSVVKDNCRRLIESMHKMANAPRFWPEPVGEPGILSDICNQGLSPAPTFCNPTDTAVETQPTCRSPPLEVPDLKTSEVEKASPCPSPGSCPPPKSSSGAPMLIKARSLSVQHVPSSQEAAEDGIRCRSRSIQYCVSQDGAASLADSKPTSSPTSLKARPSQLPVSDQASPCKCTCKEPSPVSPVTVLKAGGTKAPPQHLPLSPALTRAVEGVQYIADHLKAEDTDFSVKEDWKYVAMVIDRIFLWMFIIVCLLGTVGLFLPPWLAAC
T2 sequence (P12390 whole entry): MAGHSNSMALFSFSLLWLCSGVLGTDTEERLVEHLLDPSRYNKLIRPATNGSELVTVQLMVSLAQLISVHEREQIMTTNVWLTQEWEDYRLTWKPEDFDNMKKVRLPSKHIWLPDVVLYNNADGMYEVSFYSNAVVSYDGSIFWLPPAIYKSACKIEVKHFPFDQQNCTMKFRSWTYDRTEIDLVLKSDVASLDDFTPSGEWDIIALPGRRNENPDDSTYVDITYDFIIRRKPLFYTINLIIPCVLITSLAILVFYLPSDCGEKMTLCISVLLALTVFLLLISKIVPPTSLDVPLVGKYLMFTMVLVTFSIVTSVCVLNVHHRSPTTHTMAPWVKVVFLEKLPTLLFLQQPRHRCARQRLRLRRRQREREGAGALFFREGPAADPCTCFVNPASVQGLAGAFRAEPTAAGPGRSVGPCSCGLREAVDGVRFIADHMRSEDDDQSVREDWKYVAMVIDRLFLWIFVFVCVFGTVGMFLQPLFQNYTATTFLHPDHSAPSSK
T1 sequence (P17787 whole entry): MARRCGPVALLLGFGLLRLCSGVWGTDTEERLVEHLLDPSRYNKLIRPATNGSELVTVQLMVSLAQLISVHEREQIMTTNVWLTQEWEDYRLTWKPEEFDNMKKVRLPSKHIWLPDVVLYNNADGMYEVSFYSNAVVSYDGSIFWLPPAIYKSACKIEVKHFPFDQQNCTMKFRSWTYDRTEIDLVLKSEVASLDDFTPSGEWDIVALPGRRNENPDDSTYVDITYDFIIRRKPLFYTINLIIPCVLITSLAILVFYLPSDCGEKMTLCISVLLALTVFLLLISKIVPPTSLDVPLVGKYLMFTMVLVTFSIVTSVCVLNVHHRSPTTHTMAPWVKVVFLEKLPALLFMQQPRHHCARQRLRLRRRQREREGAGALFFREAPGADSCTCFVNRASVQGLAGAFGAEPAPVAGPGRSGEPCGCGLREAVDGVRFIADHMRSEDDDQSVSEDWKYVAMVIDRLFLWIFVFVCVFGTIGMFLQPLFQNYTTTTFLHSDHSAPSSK
T1 sequence (P43681 whole entry): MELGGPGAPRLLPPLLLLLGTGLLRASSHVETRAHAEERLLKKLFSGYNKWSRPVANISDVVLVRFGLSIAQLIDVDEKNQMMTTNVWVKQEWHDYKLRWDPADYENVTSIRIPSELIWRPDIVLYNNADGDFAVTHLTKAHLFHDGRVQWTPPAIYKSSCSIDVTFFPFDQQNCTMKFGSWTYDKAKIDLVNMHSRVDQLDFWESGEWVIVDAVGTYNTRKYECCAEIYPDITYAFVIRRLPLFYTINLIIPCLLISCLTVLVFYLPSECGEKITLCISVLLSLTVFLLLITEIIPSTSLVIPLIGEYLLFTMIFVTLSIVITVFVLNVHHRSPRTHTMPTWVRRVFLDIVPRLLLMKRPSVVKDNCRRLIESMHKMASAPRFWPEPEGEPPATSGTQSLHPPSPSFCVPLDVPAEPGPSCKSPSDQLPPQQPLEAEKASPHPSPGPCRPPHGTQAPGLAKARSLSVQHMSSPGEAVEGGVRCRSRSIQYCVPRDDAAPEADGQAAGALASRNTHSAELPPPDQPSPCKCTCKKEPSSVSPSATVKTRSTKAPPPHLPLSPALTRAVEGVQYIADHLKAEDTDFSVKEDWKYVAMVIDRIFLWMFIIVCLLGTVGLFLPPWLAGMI

Consider `Cc1cc([C@H]2C[C@H]3CC[C@H]2N3)on1` (racemic) [EXO-EPIBOXIDINE], for which the pKi (in general, the negative decadic logarithm of the Ki, by convention in mol/L) is 9.34 in test [1]; 9.22 in test [2]; 8.22 in test [4]; 8.88 in test [5]; 9.40 in test [6]. For the same compound, the Ratio Ki in test [3] was 15.
With `Cc1cc(C2=CC3CCC2N3C)on1` (racemic), the pKi in test [4] was 6.40; in test [6] it was 6.29.
Consider `Cc1cc([C@@H]2C[C@H]3CC[C@H]2N3)on1` (racemic) [ENDO-EPIBOXIDINE], for which the pKi in test [4] was 6.64; in test [6], 7.15.
For the compound `Cc1cc(C2=CC3CCC2N3)on1` (racemic), in test [3], the Ratio Ki came out at 32. For the same compound, the results for the pKi in test [4] and in test [6] were 5.80 and 7.30, respectively.
